From patent US20070010671A1, “Novel quinazoline derivatives and methods of treatment related to the use thereof” (priority 2003, published 2007) come the findings set out here.

The assay concerns the target MCH receptor (Homo sapiens, UniProt Q99705). Nature of the assay: High throughput functional screening FLIPR/FDSS6000: inhibition of MCH-evoked intracellular Ca2+ changes. It counts as cell-based. The conditions noted are these: class by percent of control at 10^−7 M or by IC50; read-out: class. The essentials:
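In a kinetic calcium-flux format, compounds were tested at various concentrations against 50 nM MCH. Fluo4-loaded cells expressing a constitutively active, non-endogenous receptor were imaged at 488/530 nm for 290 s after agonist addition.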

In the case of `CN(C)c1nc(N[C@H]2CC[C@@H](C(=O)NCc3ccc(Br)cc3)CC2)nc2cc(F)c(F)cc12` [Example 1002, cis-N-(4-bromobenzyl)-4-{[4-(dimethylamino)-6,7-difluoroquinazolin-2-yl]amino}cyclohexanecarboxamide], the IC50 is below 50 nM.

As for `CN(C)c1nc(N[C@H]2CC[C@@H](C(=O)NCc3ccccc3Br)CC2)nc2cc(F)c(F)cc12` [Example 1003, cis-N-(2-bromobenzyl)-4-{[4-(dimethylamino)-6,7-difluoroquinazolin-2-yl]amino}cyclohexanecarboxamide], the IC50 was below 50 nM.

On to `CN(C)c1nc(N[C@H]2CC[C@@H](C(=O)NCc3ccc(OC(F)(F)F)cc3)CC2)nc2cc(F)c(F)cc12` [Example 1004, cis-4-{[4-(dimethylamino)-6,7-difluoroquinazolin-2-yl]amino}-N-[4-(trifluoromethoxy)benzyl]cyclohexanecarboxamide], for which the IC50 was below 50 nM.

In the case of `CN(C)c1nc(N[C@H]2CC[C@@H](C(=O)NCc3cc(C(F)(F)F)cc(C(F)(F)F)c3)CC2)nc2cc(F)c(F)cc12` [Example 1005, cis-N-[3,5-bis(trifluoromethyl)benzyl]-4-{[4-(dimethylamino)-6,7-difluoroquinazolin-2-yl]amino}cyclohexanecarboxamide], the IC50 is above 200 nM.

Take `CN(C)c1nc(N[C@H]2CC[C@@H](C(=O)NCc3cccc(I)c3)CC2)nc2cc(F)c(F)cc12` [Example 1006, cis-4-{[4-(dimethylamino)-6,7-difluoroquinazolin-2-yl]amino}-N-(3-iodobenzyl)cyclohexanecarboxamide]: the IC50 was in the range of 50 to 200 nM.

On to `Cc1ccc([C@H](C)NC(=O)[C@H]2CC[C@@H](Nc3nc(N(C)C)c4cc(F)c(F)cc4n3)CC2)cc1` [Example 1007, cis-4-{[4-(dimethylamino)-6,7-difluoroquinazolin-2-yl]amino}-N-[(1S)-1-(4-methylphenyl)ethyl]cyclohexanecarboxamide], for which the IC50 was below 50 nM.

Take `CN(C)c1nc(N[C@H]2CC[C@@H](NC(=O)Nc3cccc(OC(F)(F)F)c3)CC2)nc2ccccc12` [Example 1009, N-(cis-4-{[4-(dimethylamino)quinazolin-2-yl]amino}cyclohexyl)-N′-[3-(trifluoromethoxy)phenyl]urea]: the IC50 was below 50 nM.

In the case of `COc1ccc(NC(=O)N[C@H]2CC[C@@H](Nc3nc(N(C)C)c4ccccc4n3)CC2)cc1OC` [Example 1010, N-(3,4-dimethoxyphenyl)-N′-(cis-4-{[4-(dimethylamino)quinazolin-2-yl]amino}cyclohexyl)urea], the IC50 is below 50 nM.

For `CN(C)c1nc(N[C@H]2CC[C@@H](NC(=O)Nc3ccccc3Cl)CC2)nc2ccccc12` [Example 1011, N-(2-chlorophenyl)-N′-(cis-4-{[4-(dimethylamino)quinazolin-2-yl]amino}cyclohexyl)urea], the IC50 is 50 to 200 nM.

As to `CN(C)c1nc(N[C@H]2CC[C@@H](NC(=O)Nc3c(Cl)cccc3Cl)CC2)nc2ccccc12` [Example 1012, N-(2,6-dichlorophenyl)-N′-(cis-4-{[4-(dimethylamino)quinazolin-2-yl]amino}cyclohexyl)urea], the IC50 was above 200 nM.

Turning to `CN(C)c1nc(N[C@H]2CC[C@@H](NC(=O)Nc3cccc(Cl)c3Cl)CC2)nc2ccccc12` [Example 1013, N-(2,3-dichlorophenyl)-N′-(cis-4-{[4-(dimethylamino)quinazolin-2-yl]amino}cyclohexyl)urea], the IC50 was above 200 nM.

Take `CN(C)c1nc(N[C@H]2CC[C@@H](NC(=S)Nc3ccccc3Br)CC2)nc2ccccc12` [Example 1014, N-(2-bromophenyl)-N′-(cis-4-{[4-(dimethylamino)quinazolin-2-yl]amino}cyclohexyl)thiourea]: the IC50 lay within 50 to 200 nM.

`COc1ccccc1NC(=O)NC[C@H]1CC[C@@H](Nc2nc(N(C)C)c3ccccc3n2)CC1` [Example 1015, N-[(cis-4-{[4-(dimethylamino)quinazolin-2-yl]amino}cyclohexyl)methyl]-N′-(2-methoxyphenyl)urea]: the IC50 fell in the range of 50 to 200 nM.

Consider `CCOc1ccccc1NC(=O)NC[C@H]1CC[C@@H](Nc2nc(N(C)C)c3ccccc3n2)CC1` [Example 1016, N-[(cis-4-{[4-(dimethylamino)quinazolin-2-yl]amino}cyclohexyl)methyl]-N′-(2-ethoxyphenyl)urea], for which the IC50 lay in the range of 50 to 200 nM.

With `COc1cccc(NC(=O)NC[C@H]2CC[C@@H](Nc3nc(N(C)C)c4ccccc4n3)CC2)c1` [Example 1017, N-[(cis-4-{[4-(dimethylamino)quinazolin-2-yl]amino}cyclohexyl)methyl]-N′-(3-methoxyphenyl)urea], the IC50 lay in the range of 50 to 200 nM.

With `COc1ccc(NC(=O)NC[C@H]2CC[C@@H](Nc3nc(N(C)C)c4ccccc4n3)CC2)cc1OC` [Example 1018, N-(3,4-dimethoxyphenyl)-N′-[(cis-4-{[4-(dimethylamino)quinazolin-2-yl]amino}cyclohexyl)methyl]urea], the IC50 was above 200 nM.

`COc1ccc(NC(=O)NC[C@H]2CC[C@@H](Nc3nc(N(C)C)c4ccccc4n3)CC2)c(OC)c1` [Example 1019, N-(2,4-dimethoxyphenyl)-N′-[(cis-4-{[4-(dimethylamino)quinazolin-2-yl]amino}cyclohexyl)methyl]urea]: the IC50 is 50 to 200 nM.

Consider `COc1ccc(OC)c(NC(=O)NC[C@H]2CC[C@@H](Nc3nc(N(C)C)c4ccccc4n3)CC2)c1` [Example 1020, N-(2,5-dimethoxyphenyl)-N′-[(cis-4-{[4-(dimethylamino)quinazolin-2-yl]amino}cyclohexyl)methyl]urea], for which the IC50 lay within 50 to 200 nM.

Consider `CN(C)c1nc(N[C@H]2CC[C@@H](CNC(=O)Nc3ccccc3Cl)CC2)nc2ccccc12` [Example 1021, N-(2-chlorophenyl)-N′-[(cis-4-{[4-(dimethylamino)quinazolin-2-yl]amino}cyclohexyl)methyl]urea], for which the IC50 lay within 50 to 200 nM.

In the case of `CN(C)c1nc(N[C@H]2CC[C@@H](CNC(=O)Nc3cccc(Cl)c3)CC2)nc2ccccc12` [Example 1022, N-(3-chlorophenyl)-N′-[(cis-4-{[4-(dimethylamino)quinazolin-2-yl]amino}cyclohexyl)methyl]urea], the IC50 was in the range of 50 to 200 nM.

`CN(C)c1nc(N[C@H]2CC[C@@H](CNC(=O)Nc3ccc(Cl)cc3)CC2)nc2ccccc12` [Example 1023, N-(4-chlorophenyl)-N′-[(cis-4-{[4-(dimethylamino)quinazolin-2-yl]amino}cyclohexyl)methyl]urea]: the IC50 is 50 to 200 nM.

Regarding `CN(C)c1nc(N[C@H]2CC[C@@H](CNC(=O)Nc3cc(Cl)cc(Cl)c3)CC2)nc2ccccc12` [Example 1024, N-(3,5-dichlorophenyl)-N′-[(cis-4-{[4-(dimethylamino)quinazolin-2-yl]amino}cyclohexyl)methyl]urea], the IC50 is below 50 nM.

As to `CN(C)c1nc(N[C@H]2CC[C@@H](CNC(=O)Nc3c(Cl)cccc3Cl)CC2)nc2ccccc12` [Example 1025, N-(2,6-dichlorophenyl)-N′-[(cis-4-{[4-(dimethylamino)quinazolin-2-yl]amino}cyclohexyl)methyl]urea], the IC50 is below 50 nM.

As for `CN(C)c1nc(N[C@H]2CC[C@@H](CNC(=O)Nc3ccc(Cl)c(Cl)c3)CC2)nc2ccccc12` [Example 1026, N-(3,4-dichlorophenyl)-N′-[(cis-4-{[4-(dimethylamino)quinazolin-2-yl]amino}cyclohexyl)methyl]urea], the IC50 lay in the range of 50 to 200 nM.

In the case of `CN(C)c1nc(N[C@H]2CC[C@@H](CNC(=O)Nc3cc(Cl)ccc3Cl)CC2)nc2ccccc12` [Example 1027, N-(2,5-dichlorophenyl)-N′-[(cis-4-{[4-(dimethylamino)quinazolin-2-yl]amino}cyclohexyl)methyl]urea], the IC50 is 50 to 200 nM.

As for `CN(C)c1nc(N[C@H]2CC[C@@H](CNC(=O)Nc3cccc(Cl)c3Cl)CC2)nc2ccccc12` [Example 1028, N-(2,3-dichlorophenyl)-N′-[(cis-4-{[4-(dimethylamino)quinazolin-2-yl]amino}cyclohexyl)methyl]urea], the IC50 is below 50 nM.

In the case of `CN(C)c1nc(N[C@H]2CC[C@@H](CNC(=O)Nc3ccc(Cl)cc3Cl)CC2)nc2ccccc12` [Example 1029, N-(2,4-dichlorophenyl)-N′-[(cis-4-{[4-(dimethylamino)quinazolin-2-yl]amino}cyclohexyl)methyl]urea], the IC50 lay within 50 to 200 nM.

Consider `CN(C)c1nc(N[C@H]2CC[C@@H](NC(=O)c3cccnc3Oc3ccccc3F)CC2)nc2ccccc12` [Example 1030, N-(cis-4-{[4-(dimethylamino)quinazolin-2-yl]amino}cyclohexyl)-2-(2-fluorophenoxy)nicotinamide], for which the IC50 was below 50 nM.

For `CN(C)c1nc(N[C@H]2CC[C@@H](NC(=O)c3cccnc3Oc3ccccc3Cl)CC2)nc2ccccc12` [Example 1031, 2-(2-chlorophenoxy)-N-(cis-4-{[4-(dimethylamino)quinazolin-2-yl]amino}cyclohexyl)nicotinamide], the IC50 is below 50 nM.

Take `CN(C)c1nc(N[C@H]2CC[C@@H](NC(=O)c3cccnc3Oc3ccccc3Br)CC2)nc2ccccc12` [Example 1032, 2-(2-bromophenoxy)-N-(cis-4-{[4-(dimethylamino)quinazolin-2-yl]amino}cyclohexyl)nicotinamide]: the IC50 was below 50 nM.

For the compound `CN(C)c1nc(N[C@H]2CC[C@@H](NC(=O)c3cccnc3Oc3ccccc3OC(F)(F)F)CC2)nc2ccccc12` [Example 1033, N-(cis-4-{[4-(dimethylamino)quinazolin-2-yl]amino}cyclohexyl)-2-[2-(trifluoromethoxy)phenoxy]nicotinamide], the IC50 is below 50 nM.

`CN(C)c1nc(N[C@H]2CC[C@@H](NC(=O)c3cccnc3Oc3cccc(F)c3)CC2)nc2ccccc12` [Example 1034, N-(cis-4-{[4-(dimethylamino)quinazolin-2-yl]amino}cyclohexyl)-2-(3-fluorophenoxy)nicotinamide]: the IC50 is below 50 nM.
